Test results as given in US11008295B2, “Compounds having antiinfective, antitumoral and antifungal activity” (priority 2017, dated 2021).

Assays:
Experiment in all cases: Kirby-Bauer disk diffusion susceptibility test
N. carnea = type: cell-based, Nocardia carnea
Experimental: (§1) Bacterial strains, from clinical origin, were supplied by the National Center for Microbiology, Institute of Health Carlos III (Majadahonda, Madrid). They are detailed in Table I.
(§2) Bacterial cells suspension in sterile saline was prepared from a culture of 24-72 h, depending on bacterial species, in Mueller-Hinton Agar with 5% sheep blood. Each suspension was adjusted to a fixed size inoculum of 1-5×10^8 CFU/ml with a spectrophotometer (Ferraro, M J National Committee for Clinical Laboratory Standards. 2000).
(§3) Kirby-Bauer disk diffusion susceptibility test protocol was utilized to determine the sensitivity or resistance of pathogenic bacteria against the compounds and others antibiotics. The absence of growth around the disks is an indirect measure of the ability of this compound to inhibit an organism (Kirby, W. et al., Antibiotics Annu. 1956-1957:892). After 18 to 72 hours of incubation at […], with or without CO2, under aerobic or anaerobic conditions, depending on the bacterial species, halo of growth inhibition were obtained and evaluated.
(§4) Interpretation of susceptibility and resistance was based on the presence or absence of a zone of inhibition surrounding the disk. Kirby-Bauer disk diffusion susceptibility test is a common method which uses antibiotic-impregnated wafers to test whether bacteria are affected by antibiotics. The size of the zone of inhibition depends on how effective the antibiotic is at stopping the growth of the bacterium. A stronger antibiotic will create a larger zone, because a lower concentration of the antibiotic is enough to stop growth.

T. pulmonis = type: cell-based, Tsukamurella pulmonis
Experimental: as §1, §2, §3, §4

A. baumannii = type: cell-based
Experimental: as §1, §2, §3, §4

E. coli = type: cell-based
Experimental: as §1, §2, §3, §4

E. faecalis = type: cell-based
Experimental: as §1, §2, §3, §4

E. faecium = type: cell-based
Experimental: as §1, §2, §3, §4

N. cyriacigeorgica = type: cell-based
Experimental: as §1, §2, §3, §4

P. aeruginosa = type: cell-based
Experimental: as §1, §2, §3, §4

S. aureus = type: cell-based
Experimental: as §1, §2, §3, §4

S. epidermidis = type: cell-based
Experimental: as §1, §2, §3, §4

B. cereus = type: cell-based, Bacillus cereus
Experimental: as §1, §2, §3, §4

M. abscessus = type: cell-based, Mycobacterium abscessus; details: M. abscessus strain 690, isolation year 2012
Experimental: as §1, §2, §3, §4

M. chelonae = type: cell-based; details: M. chelonae strain 870, isolation year 2011
Experimental: as §1, §2, §3, §4

M. fortuitum = type: cell-based; details: M. fortuitum strain 1080, isolation year 2011
Experimental: as §1, §2, §3, §4

[1] = N. carnea strain 40, isolation year 2011
[2] = N. carnea strain 769, isolation year 2009
[3] = T. pulmonis strain 40, isolation year 2015
[4] = T. pulmonis strain 1991, isolation year 2009
[5] = A. baumannii strain 300, isolation year 2001
[6] = A. baumannii strain 1301, isolation year 2009
[7] = E. coli strain 29, isolation year 2012
[8] = E. coli strain 305, isolation year 2008
[9] = E. faecalis strain 52, isolation year 2006
[10] = E. faecalis strain 1052, isolation year 2008
[11] = E. faecium strain 26, isolation year 2012
[12] = E. faecium strain 209, isolation year 2015
[13] = N cyriacigeorgica strain 199, isolation year 2005
[14] = N. cyriacigeorgica strain 30, isolation year 2005
[15] = P. aeruginosa strain 96, isolation year 2014
[16] = P. aeruginosa strain 115, isolation year 2013
[17] = S. aureus strain 282, isolation year 2005
[18] = S. aureus strain 890, isolation year 2010
[19] = S. epidermidis strain 188, isolation year 2009
[20] = S. epidermidis strain 982, isolation year 2006
[21] = B. cereus strain 25, isolation year 2014
[22] = B. cereus strain 182, isolation year 2013
Further: key: I = intermediate activity; S = susceptibility; R = Resistance.

Row | Compound | Sensitivity or resistance of the strain to the antibiotic (N. carnea; [1]) | Sensitivity or resistance of the strain to the antibiotic (N. carnea; [2]) | Sensitivity or resistance of the strain to the antibiotic (T. pulmonis; [3]) | Sensitivity or resistance of the strain to the antibiotic (T. pulmonis; [4]) | Sensitivity or resistance of the strain to the antibiotic (A. baumannii; [5]) | Sensitivity or resistance of the strain to the antibiotic (A. baumannii; [6]) | Sensitivity or resistance of the strain to the antibiotic (E. coli; [7]) | Sensitivity or resistance of the strain to the antibiotic (E. coli; [8]) | Sensitivity or resistance of the strain to the antibiotic (E. faecalis; [9]) | Sensitivity or resistance of the strain to the antibiotic (E. faecalis; [10]) | Sensitivity or resistance of the strain to the antibiotic (E. faecium; [11]) | Sensitivity or resistance of the strain to the antibiotic (E. faecium; [12]) | Sensitivity or resistance of the strain to the antibiotic (N. cyriacigeorgica; [13]) | Sensitivity or resistance of the strain to the antibiotic (N. cyriacigeorgica; [14]) | Sensitivity or resistance of the strain to the antibiotic (P. aeruginosa; [15]) | Sensitivity or resistance of the strain to the antibiotic (S. aureus; [17]) | Sensitivity or resistance of the strain to the antibiotic (S. aureus; [18]) | Sensitivity or resistance of the strain to the antibiotic (S. epidermidis; [19]) | Sensitivity or resistance of the strain to the antibiotic (S. epidermidis; [20]) | Sensitivity or resistance of the strain to the antibiotic (B. cereus; [21]) | other results
1 | NCC[C@H](O)C(=O)N[C@@H]1C[C@H](N)[C@@H](O[C@H]2O[C@H](CN)[C@@H](O)[C@H](O)[C@H]2O)[C@H](O)[C@H]1O[C@H]1O[C@H](CO)[C@@H](O)[C@H](N)[C@H]1O [AMK, Amikacin] | R | S | R | S | R | S | S | S | S | S | S | R | R | S | S | S | S | S | S | – | Sensitivity or resistance of the strain to the antibiotic (P. aeruginosa; [16]): S
2 | CO/N=C(\C(=O)N[C@@H]1C(=O)N2C(C(=O)O)=C(CSc3nc(=O)c(O)nn3C)CS[C@H]12)c1csc(N)n1 [CEF, Ceftriazone] | – | – | – | – | R | R | – | – | – | – | – | – | – | – | R | – | – | – | – | – | –
3 | CCC[C@@H]1C[C@@H](C(=O)N[C@@H]([C@H]2O[C@H](SC)[C@H](O)[C@@H](O)[C@H]2O)[C@H](C)Cl)N(C)C1 [CLI, Clindamycin] | – | – | – | – | – | – | – | – | – | – | – | – | – | – | – | R | R | S | R | R | Sensitivity or resistance of the strain to the antibiotic (B. cereus; [22]): R
4 | CO/N=C(\C(=O)N[C@@H]1C(=O)N2C(C(=O)O)=C(COC(C)=O)CS[C@H]12)c1csc(N)n1 [CTX, Cefotaxime] | S | S | R | S | – | – | S | R | R | R | R | R | R | S | S | – | – | – | – | – | Sensitivity or resistance of the strain to the antibiotic (P. aeruginosa; [16]): S
5 | C[C@@H](O)[C@H]1C(=O)N2C(C(=O)O)=C(S[C@@H]3CN[C@H](C(=O)N(C)C)C3)[C@H](C)[C@H]12 [MER, Meropenem] | – | – | – | – | R | S | – | – | – | – | – | – | – | – | R | – | – | – | – | – | –
6 | CO[C@H]1/C=C/O[C@@]2(C)Oc3c(C)c(O)c4c(O)c(c(/C=N/N5CCN(C)CC5)c(O)c4c3C2=O)NC(=O)/C(C)=C\C=C\[C@H](C)[C@H](O)[C@@H](C)[C@@H](O)[C@@H](C)[C@H](OC(C)=O)[C@@H]1C [RIF, Rifampicin] | – | – | – | – | – | – | – | – | – | – | – | – | – | – | – | – | – | – | – | S | Sensitivity or resistance of the strain to the antibiotic (B. cereus; [22]): S
7 | CN(C)[C@@H]1C(O)=C(C(N)=O)C(=O)[C@@]2(O)C(O)=C3C(=O)c4c(O)cccc4[C@@](C)(O)[C@H]3C[C@@H]12 [TET, Tetracycline] | – | – | – | – | – | – | – | – | – | – | – | – | – | – | – | S | R | S | S | R | Sensitivity or resistance of the strain to the antibiotic (B. cereus; [22]): S
8 | NC[C@H]1O[C@H](O[C@H]2[C@H](O)[C@@H](O[C@H]3O[C@H](CO)[C@@H](O)[C@H](N)[C@H]3O)[C@H](N)C[C@@H]2N)[C@H](N)C[C@@H]1O [TOB, Tobramycin] | – | – | – | – | S | S | – | – | – | – | – | – | – | – | S | – | – | – | – | – | –
9 | CN[C@H](CC(C)C)C(=O)N[C@H]1C(=O)N[C@@H](CC(N)=O)C(=O)N[C@H]2C(=O)N[C@H]3C(=O)N[C@H](C(=O)N[C@H](C(=O)O)c4cc(O)cc(O)c4-c4cc3ccc4O)[C@H](O)c3ccc(c(Cl)c3)Oc3cc2cc(c3O[C@@H]2O[C@H](CO)[C@@H](O)[C@H](O)[C@H]2O[C@H]2C[C@](C)(N)[C@H](O)[C@H](C)O2)Oc2ccc(cc2Cl)[C@H]1O [VAN, Vancomycin] | – | – | – | – | – | – | – | – | S | S | I | S | – | – | – | S | S | S | S | S | Sensitivity or resistance of the strain to the antibiotic (B. cereus; [22]): S
10 | Amoxicillin/Clavulanate [A/C] | S | S | R | S | – | – | S | R | – | – | – | – | R | R | – | – | – | – | – | – | –
11 | Cotrimoxazole [SxT] | R | R | R | S | – | – | – | – | – | – | – | – | S | S | – | – | – | – | – | – | Sensitivity or resistance of the strain to the antibiotic (M. abscessus): S; Sensitivity or resistance of the strain to the antibiotic (M. chelonae): R; Sensitivity or resistance of the strain to the antibiotic (M. fortuitum): S
12 | Gentamicin | – | – | – | – | – | – | S | S | S | S | S | S | – | – | – | R | R | S | R | – | –
